Laboratory results reported in article PMC10449633 (Nature Chemical Biology, 2023).
Values joined by “and” are separate entries in the source; they are usually repeats but may differ in a detail not shown here. Identical values can stand only once. Like-named read-outs stand apart in the source and are kept apart here. Numbered stars: 1 amine (or outer) side, 2 acyl side, 3 side chain; on linkers, the order of the positions; unused ones are H or OH. Square brackets hold non-standard residues; d marks the D form. Peptide text beside a SMILES is read from it. ξ: configuration not given here. X1 = CN(C(Cc1cn(Cc2ccc(Br)cc2)c2ccccc12)C(=O)[*:2])[*:1]; ξAla(CF3) = NC(CC(F)(F)F)C(=O)O; X2 = N#CCCC(O[*:1])C(=O)[*:2]; NMeL = CN[CH](CC(C)C)C(=O)O; NMeA = CN[CH](C)C(=O)O

Experiments:
Sec61α (HEK 293 FRT) = target: T1, Sec61α (HEK 293 FRT) (Homo sapiens, UniProt P61619); assay: Luciferase reporter assay in parental HEK 293 FRT cells; type: cell-based; conditions: HEK293, 24 h
T1 construct: host or cells: HEK293 Flp-In T-REx (parental, 'HEK 293 FRT')
Excerpt: All mutants were sequence verified.

mouse splenocytes = conditions: 24 h treatment
[1] = system: T-cell acute lymphoblastic leukemia cells; conditions: in vitro; cited from earlier work
Sec61α R66I = Sec61α R66I (Canis lupus familiaris, UniProt P38377, R66I); assay: Luciferase reporter assay in HEK293 cells expressing Sec61α R66I; parameters: remaining activity: dose or concentration left out as unconfirmed
Protocol: (§1) Data are mean values ± s.d. from n = 2 independent experiments.
(§2) HEK293T cells (0.3 × 10^6) were seeded per well of a six-well plate and incubated at 37 °C in 5% CO2 for 24 h to adhere. Each of the two wells was transfected with 1 µg of plasmid encoding a luciferase with the signal peptide of either VCAM1 or pPL using PEI in a 5:1 ratio, after which cells were returned to the incubator for a further 24 h. Transfected cells were then resuspended following trypsinization, cell count estimated using a TC20 Automated Cell Counter (BioRad) and diluted to seed a 96-well flat-bottom plate with 1.6 × 10^4 cells per well. […] Cells were then incubated for a further 24 h, after which the luciferase-containing media were transferred to a clean 96-well plate and stored at −20 °C. Luciferase activity of the media was estimated using a Gaussia-GLOW Juice Luciferase Assay kit from PJK Biotech GmbH as per the manufacturer’s instructions. Luminescence was measured using an EnSpire Multimode plate reader (PerkinElmer). Background luminescence from media placed in a well with neither cells nor drug was subtracted from all values, and measurements were calculated as a percentage of luminescence intensity of a well expressing the appropriate luciferase construct in the absence of any drug. Curves were fitted, and IC50 values were calculated using GraphPad Prism 8.
WT canine Sec61 was cloned into pcDNA5/FRT/TO (Thermo Fisher Scientific), and point mutations were generated using PCR. All mutants were sequence verified. HEK293 Flp-In T-REx cells (Thermo Fisher Scientific, R78007) were cultured in Dulbecco’s modified Eagle’s medium (Gibco) supplemented with 10% FBS (Gibco) at 37 °C in a humidified 5% CO2 atmosphere. Approximately 0.3 µg of pOG44 and 1 µg of targeting construct plasmids were mixed in 250 µl of OptiMEM (Thermo Fisher Scientific, 51985-026). A total of 3 µl (3 µg) Lipofectamine3000 transfection reagent was then added to the DNA mix and incubated at room temperature for 20 min, and the whole mixture was added to the cells. Cells were exposed to 100 µg ml^−^1 hygromycin B (Invitrogen) and 10 µg ml^−^1 blasticidin for 3–4 weeks until the appearance of resistant colonies. Colonies were expanded into T75 flasks and induced with doxycycline (Sigma-Aldrich, D9891) at a concentration of 1–5 µg ml^−^1 for 48 h. Cells were collected, and total RNA was extracted followed by cDNA amplification and sequencing of Sec61 with gene-specific PCR primers to confirm. Cells were then used for the luciferase reporter assays as above.
(§3) Data are mean values ± SD and are representative of n = 2 independent experiments.

Sec61α N300M = Sec61α N300M (Canis lupus familiaris, UniProt P38377, N300M); assay: Luciferase reporter assay in HEK293 cells expressing Sec61α N300M; conditions: HEK293, 24 h, read-out: luciferase reporter activity (% of no-drug control), N300M
Protocol: as §1, §2
(§4) HEK293 Flp-In T-REx cells (Thermo Fisher Scientific, R78007) were cultured in Dulbecco’s modified Eagle’s medium (Gibco) supplemented with 10% FBS (Gibco) at 37 °C in a humidified 5% CO2 atmosphere. Approximately 0.3 µg of pOG44 and 1 µg of targeting construct plasmids were mixed in 250 µl of OptiMEM (Thermo Fisher Scientific, 51985-026). A total of 3 µl (3 µg) Lipofectamine3000 transfection reagent was then added to the DNA mix and incubated at room temperature for 20 min, and the whole mixture was added to the cells. Cells were exposed to 100 µg ml^−^1 hygromycin B (Invitrogen) and 10 µg ml^−^1 blasticidin for 3–4 weeks until the appearance of resistant colonies. Colonies were expanded into T75 flasks and induced with doxycycline (Sigma-Aldrich, D9891) at a concentration of 1–5 µg ml^−^1 for 48 h. Cells were collected, and total RNA was extracted followed by cDNA amplification and sequencing of Sec61 with gene-specific PCR primers to confirm. Cells were then used for the luciferase reporter assays as above.
as §3

Sec61α S305A = Sec61α S305A (Canis lupus familiaris, UniProt P38377, S305A); assay: Luciferase reporter assay in HEK293 cells expressing Sec61α S305A; parameters: remaining activity: dose or concentration left out as unconfirmed; conditions: HEK293, 24 h, read-out: luciferase reporter activity (% of no-drug control), S305A
Protocol: as §1, §2, §4, §3

Wild Type Sec61α = Wild Type Sec61α (Canis lupus familiaris, UniProt P38377); assay: Luciferase reporter assay in HEK293 Flp-In T-REx cells expressing Wild Type Sec61α; parameters: remaining activity: dose or concentration left out as unconfirmed; conditions: HEK293, 24 h, read-out: luciferase reporter activity (% of no-drug control), Wild Type
Wild Type Sec61α, sequence (P38377 whole entry): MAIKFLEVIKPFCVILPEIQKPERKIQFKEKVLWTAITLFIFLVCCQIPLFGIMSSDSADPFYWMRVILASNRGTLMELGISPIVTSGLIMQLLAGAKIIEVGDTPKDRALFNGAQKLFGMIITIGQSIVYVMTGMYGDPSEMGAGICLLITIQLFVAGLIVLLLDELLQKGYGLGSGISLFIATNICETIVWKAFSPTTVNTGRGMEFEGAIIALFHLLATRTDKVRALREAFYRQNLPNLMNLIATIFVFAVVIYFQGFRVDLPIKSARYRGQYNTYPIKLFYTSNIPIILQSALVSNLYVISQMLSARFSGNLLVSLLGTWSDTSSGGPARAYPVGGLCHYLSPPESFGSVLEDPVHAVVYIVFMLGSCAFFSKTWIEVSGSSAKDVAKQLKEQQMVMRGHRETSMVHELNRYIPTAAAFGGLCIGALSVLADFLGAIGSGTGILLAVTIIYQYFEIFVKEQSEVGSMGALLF
Wild Type Sec61α, sequence (P60468 whole entry, further chain): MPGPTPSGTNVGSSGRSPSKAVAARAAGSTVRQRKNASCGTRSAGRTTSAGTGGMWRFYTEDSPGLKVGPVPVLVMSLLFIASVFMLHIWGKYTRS
Wild Type Sec61α, sequence (P60059 whole entry, further chain): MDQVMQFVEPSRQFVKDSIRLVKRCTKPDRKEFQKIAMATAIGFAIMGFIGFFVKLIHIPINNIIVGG
Protocol: as §1, §2, §4, §3

Sec61α R66I, sequence (P38377 whole entry R66I): as the sequence (P38377 whole entry) above, with R66I counted along it
Sec61α R66I, sequence (P60059 whole entry, further chain): as the sequence (P60059 whole entry, further chain) above
Sec61α R66I, sequence (P60468 whole entry, further chain): as the sequence (P60468 whole entry, further chain) above
T1 sequence (P60468 whole entry): as the sequence (P60468 whole entry, further chain) above
T1 sequence (P60059 whole entry, further chain): as the sequence (P60059 whole entry, further chain) above
T1 sequence (P61619 whole entry): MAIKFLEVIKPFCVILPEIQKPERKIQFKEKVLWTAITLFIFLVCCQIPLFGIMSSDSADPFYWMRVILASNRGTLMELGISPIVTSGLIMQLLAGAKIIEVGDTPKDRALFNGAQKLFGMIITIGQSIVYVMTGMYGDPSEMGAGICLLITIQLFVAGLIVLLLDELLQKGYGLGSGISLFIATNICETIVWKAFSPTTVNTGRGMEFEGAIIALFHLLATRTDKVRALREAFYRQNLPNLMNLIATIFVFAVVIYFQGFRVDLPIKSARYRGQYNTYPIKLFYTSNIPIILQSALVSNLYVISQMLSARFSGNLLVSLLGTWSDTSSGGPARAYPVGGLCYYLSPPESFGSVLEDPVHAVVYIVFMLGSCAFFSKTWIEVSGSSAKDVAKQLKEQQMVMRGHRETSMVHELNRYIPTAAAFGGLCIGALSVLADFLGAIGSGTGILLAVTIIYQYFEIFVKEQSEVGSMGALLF
Sec61α S305A, sequence (P38377 whole entry S305A): as the sequence (P38377 whole entry) above, with S305A counted along it
Sec61α S305A, sequence (P60059 whole entry, further chain): as the sequence (P60059 whole entry, further chain) above
Sec61α S305A, sequence (P60468 whole entry, further chain): as the sequence (P60468 whole entry, further chain) above
Sec61α N300M, sequence (P38377 whole entry N300M): as the sequence (P38377 whole entry) above, with N300M counted along it
Sec61α N300M, sequence (P60468 whole entry, further chain): as the sequence (P60468 whole entry, further chain) above
Sec61α N300M, sequence (P60059 whole entry, further chain): as the sequence (P60059 whole entry, further chain) above

Question: Which results are given for `CC(C)CC1NC(=O)C(Cc2cn(Cc3ccc(Br)cc3)c3ccccc23)N(C)C(=O)C(CC(F)(F)F)NC(=O)C(CC(C)C)N(C)C(=O)C(CC(F)(F)F)NC(=O)C(CCC#N)OC(=O)C(C)N(C)C1=O` (stereo not drawn) [KZR-8445] (cyclo([X1]L[NMeA][X2][ξAla(CF3)][NMeL][ξAla(CF3)]); configuration not given here)?
Answer: remaining activity at 0.00152 µM (Sec61α (HEK 293 FRT); Drug nM (log10) 0.18303, read-out: luciferase reporter activity (% of no-drug control)): 88.7%; remaining activity at 0.00457 µM (Sec61α (HEK 293 FRT); Drug nM (log10) 0.660151, read-out: luciferase reporter activity (% of no-drug control)): 75.3%; remaining activity at 0.04115 µM (Sec61α (HEK 293 FRT); Drug nM (log10) 1.61439, read-out: luciferase reporter activity (% of no-drug control)): 27%; remaining activity at 0.1235 µM (Sec61α (HEK 293 FRT); Drug nM (log10) 2.09151, read-out: luciferase reporter activity (% of no-drug control)): 12.8%; remaining activity at 0.37 µM (Sec61α (HEK 293 FRT); Drug nM (log10) 2.56864, read-out: luciferase reporter activity (% of no-drug control)): 4.89%; remaining activity at 1.111 µM (Sec61α (HEK 293 FRT); Drug nM (log10) 3.04576, read-out: luciferase reporter activity (% of no-drug control)): 2.41%; remaining activity at 3.33 µM (Sec61α (HEK 293 FRT); Drug nM (log10) 3.52288, read-out: luciferase reporter activity (% of no-drug control)): 2.03%; remaining activity at 10 µM (Sec61α (HEK 293 FRT); Drug nM (log10) 4, read-out: luciferase reporter activity (% of no-drug control)): 2.36%; remaining activity at 0.00050805 µM (Sec61α (HEK 293 FRT); Drug nM (log10) -0.29409, read-out: luciferase reporter activity (% of no-drug control)): 92.4%; cell viability (CTG assay) (mouse splenocytes; 0.025 nM): 106.047 and 100.001; cell viability (CTG assay) (mouse splenocytes; 0.25 nM): 110.01 and 102.05; cell viability (CTG assay) (mouse splenocytes; 2.5 nM): 105.776 and 105.957; cell viability (CTG assay) (mouse splenocytes; 25 nM): 105.176 and 97.9523; cell viability (CTG assay) (mouse splenocytes; 250 nM): 107.467 and 93.3938; cell viability (CTG assay) (mouse splenocytes; 2500 nM): 99.7089 and 85.9729; cell viability (CTG assay) (mouse splenocytes; 25000 nM): 95.1208 and 88.5789; dexamethasone resistance in T-ALL cells [1]: overcome dexamethasone resistance; remaining activity at 0.00018303 µM (Sec61α R66I; HEK293, 24 h, read-out: luciferase reporter activity (% of no-drug control), R66I, Drug nM (log10) 0.18303): 90.3%; remaining activity at 0.000660151 µM (Sec61α R66I; HEK293, 24 h, read-out: luciferase reporter activity (% of no-drug control), R66I, Drug nM (log10) 0.660151): 85.2%; remaining activity at 0.00113727 µM (Sec61α R66I; HEK293, 24 h, read-out: luciferase reporter activity (% of no-drug control), R66I, Drug nM (log10) 1.13727): 74.3%; remaining activity (Sec61α R66I; HEK293, 24 h, read-out: luciferase reporter activity (% of no-drug control), R66I, Drug nM (log10) 1.61439): 58.4%; remaining activity (Sec61α R66I; HEK293, 24 h, read-out: luciferase reporter activity (% of no-drug control), R66I, Drug nM (log10) 2.09151): 48.6%; remaining activity (Sec61α R66I; HEK293, 24 h, read-out: luciferase reporter activity (% of no-drug control), R66I, Drug nM (log10) 2.56864): 41.2%; remaining activity (Sec61α R66I; HEK293, 24 h, read-out: luciferase reporter activity (% of no-drug control), R66I, Drug nM (log10) 3.04576): 39.3%; remaining activity (Sec61α R66I; HEK293, 24 h, read-out: luciferase reporter activity (% of no-drug control), R66I, Drug nM (log10) 3.52288): 35.2%; remaining activity at 0.004 µM (Sec61α R66I; HEK293, 24 h, read-out: luciferase reporter activity (% of no-drug control), R66I, Drug nM (log10) 4): 39%; remaining activity at 0.00050805 µM (Sec61α R66I; HEK293, 24 h, read-out: luciferase reporter activity (% of no-drug control), R66I, Drug nM (log10) -0.29409): 90%; effect of R66I mutation on sensitivity in secreted GLuc assay (Sec61α R66I; HEK293 cells): conferred resistance; remaining activity at 0.00018303 µM (Sec61α N300M; Drug nM (log10) 0.18303): 96.7%; remaining activity at 0.000660151 µM (Sec61α N300M; Drug nM (log10) 0.660151): 105%; remaining activity (Sec61α N300M; Drug nM (log10) 1.61439): 76.6%; remaining activity (Sec61α N300M; Drug nM (log10) 2.09151): 74%; remaining activity (Sec61α N300M; Drug nM (log10) 3.04576): 68%; remaining activity at 0.000508 µM (Sec61α N300M; Drug nM (log10) -0.29409): 92.5%; remaining activity at 0.00018303 µM (Sec61α S305A; Drug nM (log10) 0.18303): 82.1%; remaining activity at 0.000660151 µM (Sec61α S305A; Drug nM (log10) 0.660151): 68.1%; remaining activity at 0.00113727 µM (Sec61α S305A; Drug nM (log10) 1.13727): 47.4%; remaining activity (Sec61α S305A; Drug nM (log10) 1.61439): 27.2%; remaining activity (Sec61α S305A; Drug nM (log10) 2.09151): 13%; remaining activity (Sec61α S305A; Drug nM (log10) 2.56864): 5.54%; remaining activity (Sec61α S305A; Drug nM (log10) 3.04576): 3.19%; remaining activity (Sec61α S305A; Drug nM (log10) 3.52288): 2.55%; remaining activity at 0.004 µM (Sec61α S305A; Drug nM (log10) 4): 3.24%; remaining activity at 0.00050805 µM (Sec61α S305A; Drug nM (log10) -0.29409): 89.3%; remaining activity at 0.00018303 µM (Wild Type Sec61α; Drug nM (log10) 0.18303): 85.5%; remaining activity at 0.000660151 µM (Wild Type Sec61α; Drug nM (log10) 0.660151): 69.5%; remaining activity at 0.00113727 µM (Wild Type Sec61α; Drug nM (log10) 1.13727): 51.6%; remaining activity (Wild Type Sec61α; Drug nM (log10) 1.61439): 27.8%; remaining activity (Wild Type Sec61α; Drug nM (log10) 2.09151): 11.4%; remaining activity (Wild Type Sec61α; Drug nM (log10) 2.56864): 4.55%; remaining activity (Wild Type Sec61α; Drug nM (log10) 3.04576): 2.42%; remaining activity (Wild Type Sec61α; Drug nM (log10) 3.52288): 1.93%; remaining activity at 0.004 µM (Wild Type Sec61α; Drug nM (log10) 4): 2.26%; remaining activity at 0.00050805 µM (Wild Type Sec61α; Drug nM (log10) -0.29409): 91.1%
